Legend:
[1] = tested on: heart rate, systolic left ventricular pressure, left ventricular dp/dt max and mean arterial blood pressure; test: Haemodynamic profile in anaesthetized rats; assay type: in vivo, rat; settings: for % effect of Dhr 20 on dp/dtmax: left ventricular
Source text: 2. Haemodynamic profile in anaesthetized rats.
The effect of compounds of the invention on heart rate, systolic left ventricular pressure, left ventricular dp/dt max and mean arterial blood pressure was investigated so as to obtain information on the anti-anginal potential of these compounds, by reducing the oxygen demand of the ischaemic heart.
**LVP = systolic left ventricular pressure
***BP = mean arterial blood pressure
^a = i.d. administration

coronary artery = biological target: T1, coronary artery (Sus scrofa, UniProt A0A8W4FNC0); test: Pig isolated coronary artery, Ca++-antagonistic activity
T1 construct: Coronary artery spirals were prepared; from tissue; host or cells: pig coronary artery spirals
Experimental: b) Pig isolated coronary artery
Coronary artery spirals were prepared and in lengths from 1.5 to 2 cm were incubated at 32.5° in Ca^++ -free Krebs-Henseleit solution containing tris buffer and 60 mM KCl. Ca^++ in concentrations ranging from 0.1 mM-7 mM was given every 10 min to produce a control dose-responsecurve. Following a wash out circle using EDTA, either placebo or drug was administered, and an equilibration time of 30 minutes allowed before the second dose-response curve was made. Dose-ratios were calculated at ED50 -levels, from these the log KB was calculated.

coronary spasm = test: Vasopressin test in anaesthetized rats (coronary vasodilating activity, coronary spasm); assay type: in vivo, rat; settings: 0.6 g/kg i.d., vasopressin (Lysopressin) 1 I.U./kg i.v.
Experimental: 1. Coronary Vasodilating activity
a) Vasopressin test in anaesthetized rats
Vasopressin (Lysopressin: 1 I.U./kg) was administered intravenously in order to provoke coronary spasm (ST-segment elevation in the ECG).
The ability of test compounds to reduce coronary spasm is taken as a measure of their anti-anginal potential in spasm-induced angina pectoris. (Ref. Drug.Res. 33(11), 8,1117-1121 (1983)).

[2] = anaesthetized rat, i.v., at Dhr 20

T1 sequence (A0A8W4FNC0 1-2067): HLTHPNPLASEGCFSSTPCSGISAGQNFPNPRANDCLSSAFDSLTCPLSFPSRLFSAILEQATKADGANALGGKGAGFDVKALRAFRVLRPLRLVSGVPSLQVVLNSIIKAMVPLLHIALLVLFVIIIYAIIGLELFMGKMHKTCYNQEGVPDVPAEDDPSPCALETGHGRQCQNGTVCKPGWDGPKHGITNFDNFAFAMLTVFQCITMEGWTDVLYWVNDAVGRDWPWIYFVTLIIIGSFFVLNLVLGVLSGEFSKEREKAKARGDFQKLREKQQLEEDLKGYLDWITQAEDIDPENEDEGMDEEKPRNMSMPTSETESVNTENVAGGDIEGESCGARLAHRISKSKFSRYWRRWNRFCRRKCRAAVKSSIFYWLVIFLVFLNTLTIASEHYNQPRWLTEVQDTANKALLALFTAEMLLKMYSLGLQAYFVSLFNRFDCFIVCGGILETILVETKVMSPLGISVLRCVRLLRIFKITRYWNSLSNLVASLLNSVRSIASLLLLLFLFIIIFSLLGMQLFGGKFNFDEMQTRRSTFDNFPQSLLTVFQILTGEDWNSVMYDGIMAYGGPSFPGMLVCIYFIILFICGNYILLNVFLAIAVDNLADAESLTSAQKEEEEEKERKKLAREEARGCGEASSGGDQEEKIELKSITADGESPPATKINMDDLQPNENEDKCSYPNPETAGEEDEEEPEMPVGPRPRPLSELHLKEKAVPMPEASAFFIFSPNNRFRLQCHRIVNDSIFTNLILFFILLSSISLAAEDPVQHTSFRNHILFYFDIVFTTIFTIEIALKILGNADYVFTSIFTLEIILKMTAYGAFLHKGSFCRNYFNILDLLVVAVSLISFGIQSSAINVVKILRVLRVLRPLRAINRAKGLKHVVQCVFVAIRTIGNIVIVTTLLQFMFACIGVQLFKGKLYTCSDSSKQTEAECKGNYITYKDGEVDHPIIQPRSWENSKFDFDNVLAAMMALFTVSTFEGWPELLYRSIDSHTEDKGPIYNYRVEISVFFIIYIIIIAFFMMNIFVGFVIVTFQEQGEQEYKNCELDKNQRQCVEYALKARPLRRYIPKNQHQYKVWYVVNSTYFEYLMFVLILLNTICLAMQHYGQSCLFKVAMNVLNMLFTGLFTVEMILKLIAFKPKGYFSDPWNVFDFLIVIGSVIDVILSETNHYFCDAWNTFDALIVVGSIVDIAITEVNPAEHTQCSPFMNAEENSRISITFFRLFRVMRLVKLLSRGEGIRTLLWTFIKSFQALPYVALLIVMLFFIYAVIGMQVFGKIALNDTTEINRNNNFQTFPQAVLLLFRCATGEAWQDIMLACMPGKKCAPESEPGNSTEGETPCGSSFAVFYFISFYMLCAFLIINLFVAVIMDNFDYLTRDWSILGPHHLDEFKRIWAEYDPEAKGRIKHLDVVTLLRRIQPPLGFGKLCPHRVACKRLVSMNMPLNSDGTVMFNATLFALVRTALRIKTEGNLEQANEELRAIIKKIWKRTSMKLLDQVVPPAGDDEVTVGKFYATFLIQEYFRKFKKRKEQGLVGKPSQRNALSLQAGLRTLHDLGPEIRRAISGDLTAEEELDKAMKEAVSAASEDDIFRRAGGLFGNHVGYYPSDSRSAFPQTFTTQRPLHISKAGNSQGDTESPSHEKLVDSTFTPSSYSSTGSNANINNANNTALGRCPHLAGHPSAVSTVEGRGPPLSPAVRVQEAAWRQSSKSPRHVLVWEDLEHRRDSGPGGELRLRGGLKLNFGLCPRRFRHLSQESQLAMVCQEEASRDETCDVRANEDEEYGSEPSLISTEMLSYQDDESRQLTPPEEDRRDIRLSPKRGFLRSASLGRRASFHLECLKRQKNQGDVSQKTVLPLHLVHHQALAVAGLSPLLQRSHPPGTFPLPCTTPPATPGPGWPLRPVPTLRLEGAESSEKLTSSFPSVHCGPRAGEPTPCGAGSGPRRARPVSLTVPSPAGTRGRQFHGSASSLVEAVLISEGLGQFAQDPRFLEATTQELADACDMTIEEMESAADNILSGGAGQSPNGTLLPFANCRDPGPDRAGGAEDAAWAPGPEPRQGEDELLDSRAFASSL

| Compound | i.v. duration of action on heart rate ([1]; anaesthetized rat, i.v.) | % effect of Dhr 20 on dp/dtmax [1, 2] | other results |
| --- | --- | --- | --- |
| COc1ccc(CCN(C)CCCN(C(=O)CCc2ccccc2)c2ccc(OC)c(OC)c2)cc1OC [Example E15, (N-[3,4-Dimethoxyphenyl]-N-3-[N'-2-(3,4-dimethoxyphenyl)-ethyl-N'-methylamino]-propyl)-(3-phenyl)propanoic acid amide] | 10 min | -7% | – |
| COc1ccc(CCN(C)CCCN(Cc2ccccc2)c2ccc(OC)c(OC)c2)cc1OC [Example E4, (N-[3,4-Dimethoxyphenyl]-N-3-[N'-2-(3,4-dimethoxyphenyl)-ethyl-N'-methylamino]-propyl)-benzylamine] | 10 min | -12% | Kb (coronary artery; pig coronary artery spirals, 60 mM KCl, Ca++ 0.1 mM-7 mM, 30 min equilibration, dose-ratios at ED50 levels): 1.41 µM; Ca++-antagonistic activity in coronary artery in vitro (coronary artery; pig coronary artery, from log KB): moderate to medium |
| COc1ccc(CCN(C)CCCN(C(=O)c2ccc([N+](=O)[O-])cc2)c2ccc(OC)c(OC)c2)cc1OC [Example E50, (N-[3,4-Dimethoxyphenyl]-N-3-[N'-2-(3,4-dimethoxyphenyl)-ethyl-N'-methyl-amino]-propyl)-4-nitrobenzamide] | – | – | % effect of Dhr 20 on BP (mean arterial blood pressure) ([1]; rat, in vivo): -6%; duration of action on heart rate ([1]; rat, in vivo): > 90 min; % effect of Dhr 20 on BP (mean arterial blood pressure) ([1]; rat, in vivo, iv): -1%; % effect of Dhr 20 on LVP (systolic left ventricular pressure) ([1]; rat, in vivo, iv): -1% |
| COc1ccc(CCN(C)CCCN(Cc2ccccc2[N+](=O)[O-])c2ccc(OC)c(OC)c2)cc1OC [Example E1, (N-[3,4-Dimethoxyphenyl]-N-3-[N'-2-(3,4-dimethoxyphenyl)-ethyl-N'-methylamino]-propyl)-(2-nitro)-benzylamine] | 10 min | -3% | activity against coronary spasm (ST-segment elevation in the ECG) (coronary spasm): active against coronary spasm |
| CCCCCN(CCCN(C)CCc1ccc(OC)c(OC)c1)c1ccc(OC)c(OC)c1 [Example E34, (N-[3,4-Dimethoxyphenyl]-N-3-[N'-2-(3,4-dimethoxyphenyl)-ethyl-N'-methylamino]-propyl)-n-pentylamine] | 5 to 10 min | -10% | – |
| CCCCC(=O)N(CCCN(C)CCc1ccc(OC)c(OC)c1)c1ccc(OC)c(OC)c1 [Example E12, (N-[3,4-Dimethoxyphenyl]-N-3-[N'-2-(3,4-dimethoxyphenyl)-ethyl-N'-methylamino]-propyl)-pentanoic acid amide] | 10 min | -6% | – |
| COc1ccc(CCN(C)CCCN(Cc2ccc([N+](=O)[O-])cc2)c2ccc(OC)c(OC)c2)cc1OC [Example E6, (N-[3,4-Dimethoxyphenyl]-N-3-[N'-2-(3,4-dimethoxyphenyl)-ethyl-N'-methylamino]-propyl)-(4-nitro)-benzylamine] | 60 min | -5% | – |
| COc1ccc(CCN(C)CCN(C(=O)NC(C)c2ccccc2)c2ccc(OC)c(OC)c2)cc1OC (stereo not shown) [Example E32] | 10 min | -3% | – |
| COc1ccc(CCN(C)CCCN(c2ccc(OC)c(OC)c2)c2ncc([N+](=O)[O-])cc2[N+](=O)[O-])cc1OC [Example E44, (N-[3,4-Dimethoxyphenyl]-N-3-[N'-2-(3,4-dimethoxyphenyl)-ethyl-N'-methyl-amino]-propyl)-3,5-dinitro-2-amino-pyridine] | 10 min | -8% | Dhr 20 (i.v. dose which reduces heart rate by ca. 20%) ([1]; anaesthetized rat, i.v.): 3.2; % effect of Dhr 20 on BP (mean arterial blood pressure) [1, 2]: -10%; % effect of Dhr 20 on LVP (systolic left ventricular pressure) [1, 2]: -6% |
| CCCCOC(=O)N(CCCN(C)CCc1ccc(OC)c(OC)c1)c1ccc(OC)c(OC)c1 [Example E24, (N-[3,4-Dimethoxyphenyl]-N-3-[N'-2-(3,4-dimethoxyphenyl)-ethyl-N'methylamino]-propyl)-n-butyl-urethane] | 10 min | -8% | – |
| COc1ccc(CCN(C)CCCN(C(=O)NCc2ccccc2)c2ccc(OC)c(OC)c2)cc1OC [Example E30, (N-[3,4-Dimethoxyphenyl]-N-3-[N'-2-(3,4-dimethoxyphenyl)-ethyl-N'-methylamino]-propyl)-N"-benzylurea] | 10 min | -20% | – |
| CCCNC(=O)N(CCCN(C)CCc1ccc(OC)c(OC)c1)c1ccc(OC)c(OC)c1 [Example E27, (N-[3,4-Dimethoxyphenyl]-N-3-[N'-2-(3,4-dimethoxyphenyl)-ethyl-N'-methylamino]-propyl)-N"-n-propyl-urea] | 5 to 10 min | -1% | – |
| COc1ccc(CCN(C)CCCN(C(=O)Oc2ccccc2)c2ccc(OC)c(OC)c2)cc1OC [Example E25, (N-[3,4-Dimethoxyphenyl]-N-3-[N'-2-(3,4-dimethoxyphenyl)-ethyl-N'-methylamino]-propyl)-phenyl-urethane] | 10 min | -2% | Dhr 20 (i.v. dose which reduces heart rate by ca. 20%) ([1]; anaesthetized rat, i.v.): 0.8; % effect of Dhr 20 on BP (mean arterial blood pressure) [1, 2]: -14%; % effect of Dhr 20 on LVP (systolic left ventricular pressure) [1, 2]: -10% |

From US5494933A, “Treatment” (Beecham-Wuelfing GmbH & Co. KG, priority 1986, dated 1996)
